Assay results published in patent US12370235B2, “Synthetic, non-natural antimicrobial peptides inspired by Staphylococcus auricularis delta toxin” (University of Saskatchewan, priority 2021, dated 2025).
Read-outs that look alike come from different tables or passages of the source. Ends that are not written are not given here.

Key:
panel of 7 MRSA strains = assay type: cell-based, Staphylococcus aureus
Protocol: The antibiotic effect of STIP3-29 was bactericidal (FIG. 3). […] Some proportion of bacterial cells escaped treatment, remaining dormant. Indeed, strain-dependent persister cells, capable of escaping a variety of therapeutic agents, have been described for S. aureus^47.
Measurement of bactericidal activity. […] For S. aureus, an overnight culture was diluted to an OD of 5×10^−7 in 2 ml of MH broth supplemented with the appropriate concentration of peptide. Sterile water was added to control cultures. Standing cultures were incubated at 37° C. and 100 μl volume aliquots were removed at 60 min time intervals for 8 h. These aliquots were plated on agar plates to measure the colony forming units (CFUs) that remained viable upon treatment. Control aliquots from the same time intervals were diluted before plating to accurately enumerate increasing CFU counts. Counts were performed from plates that were incubated at 37° C. overnight. A plot of CFU/ml against time was used to illustrate and evaluate the time dependent killing. The same procedure was followed for C. albicans except that YPD broth and a cultivation temperature of 30° C. was employed.

S. equorum = test: MIC, broth dilution; assay type: cell-based; details: isolate from a healthy dairy cow
Protocol: (§1) MIC determination. MICs were measured using peptides with 95% purity. For bacterial studies, cation-adjusted Mueller Hinton (MH) broth was used as the growth medium whereas Yeast Peptone Dextrose (YPD; 10 g/L yeast extract, 20 g/L peptone, 20 g/L dextrose) was used for Candida spp. and other yeast. Microorganisms were diluted to an optical density of […] in MH or YPD broth and a 180 μl volume was mixed with 20 μl of peptide arrayed as a 2-fold dilution series in a flat-bottom 96-well microtitre plate. A control was performed using 20 μl of sterile water. Plates were incubated as standing cultures overnight at 37° C.
(§2) Determination of minimum inhibitory concentrations. The MICs were measured for bioactive peptides identified from the initial screen. For bacterial studies, cation-adjusted Mueller Hinton (MH) broth was used as the growth medium whereas YPD was used for C. albicans. Bacterial cultures were diluted to a OD value of 6×10^−4 in MH broth and a 180 μl volume was mixed with 20 μl of peptide arrayed as 2-fold dilution series in a 96-well plate. For the positive control, 20 μl of sterile water was used. Plates were incubated as standing cultures overnight at 37° C. The lowest peptide concentration that resulted no observed microbial growth after an overnight treatment was defined as the MIC.

Mycoplasma bovis = test: MIC, broth dilution; assay type: cell-based
Protocol: as §1, §2

[1] = test system: Streptococcus dysagalactiae; test: MIC, broth dilution; assay type: cell-based; details: clinical isolate
Protocol: as §1, §2

S. auricularis = test: MIC, broth dilution; assay type: cell-based; details: isolate from a healthy dairy cow
Protocol: as §1, §2

S. epidermidis = test: MIC, broth dilution; assay type: cell-based; details: isolate from a healthy dairy cow
Protocol: as §1, §2

Streptococcus canis = test: MIC, broth dilution; assay type: cell-based; details: clinical isolate
Protocol: as §1, §2

[2] = test system: Pseudomonas aeruginosa ATCC 27853; test: MIC, broth dilution; assay type: cell-based
Protocol: as §1, §2

Klebsiella pneumoniae = test: MIC, broth dilution; assay type: cell-based
Protocol: as §1, §2

Pasteurella multocida = test: MIC, broth dilution; assay type: cell-based
Protocol: as §1, §2

[3] = test system: Streptococcus zooepidermicus; test: MIC, broth dilution; assay type: cell-based; details: clinical isolate
Protocol: as §1, §2

[4] = test system: Mannheimia haemolytica (clinical, disease-causing isolate); test: MIC, broth dilution; assay type: cell-based; details: Table 7
Protocol: as §1, §2

[5] = test system: Enterococcus faecalis ATCC 2912; test: MIC, broth dilution; assay type: cell-based
Protocol: as §1, §2

Streptococcus agalactiae = test: MIC, broth dilution; assay type: cell-based; details: clinical isolate
Protocol: as §1, §2

S. scuri = test: MIC, broth dilution; assay type: cell-based; details: isolate from a healthy dairy cow
Protocol: as §1, §2

Streptococcus equi = test: MIC, broth dilution; assay type: cell-based; details: clinical isolate
Protocol: as §1, §2

3D EpiDerm skin tissues = test: Peptide cytotoxicity, 3D EpiDerm skin tissues, alamarBlue; assay type: cell-based, human; details: 250 μg/mL, 24 h
Protocol: Peptide cytotoxicity. In vitro cytotoxicity was measured using the 3D EpiDerm skin tissues and HeLa Cells using a fluorescent reporter of cell viability, alamarBlue (ThermoFisher Scientific). 3D EpiDerm skin tissues (MatTek EPI-200-AFAB) were transferred to a 12 well plate containing 600 μL of AFAB-assay medium supplemented with 10% v/v alamarBlue. […] HeLa cells were seeded in a 96-well plate (2×10^4 cells/per well) and incubated overnight at 37° C. and 5% CO2 in a humidified incubator to prepare wells at ˜50% confluency of adherent cells. After the incubation, spent DMEM was removed and cells were washed with PBS. alamarBlue-containing medium was prepared by mixing Phenol Red-free DMEM with alamarBlue solution at a 9:1 ratio and a 180 μl volume was added to each well. Cells were treated with peptides varying from 3.25 to 200 μg/mL and then incubated for 24 h. The fluorescence intensities of treated cultures were normalized to values measured for an untreated control group. After the 24 h incubation period, alamarBlue fluorescence was measured at 590 nm upon excitation at 560 nm using Varioskan Lux plate reader (Thermo Scientific) plate reader.

M. luteus ATCC 4698 = test: MIC, broth dilution; assay type: cell-based, Micrococcus luteus
How it was run: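 Peptides of 95% purity tested as 2-fold dilution series against bacteria diluted to OD 6×10^−4 in cation-adjusted Mueller Hinton broth. Standing cultures incubated overnight at 37° C; MIC is the lowest concentration with no visible growth.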

MRSA ATCC 33592 = test: SYTOX Green membrane integrity assay; assay type: cell-based, Staphylococcus aureus; details: one fourth to four-fold the MIC
Protocol: Membrane disruption and depolarization are commonly reported mechanisms of AMP action. Two indirect assays that rely on fluorescent dyes were employed to assess the interaction of STIP3-29 and D-STIP3-29 with bacterial membranes. First, changes to SYTOX fluorescence was measured when MRSA ATCC 33592 was treated with increasing peptide concentrations ranging from one fourth to four-fold the MIC. […] Next, DiSC3(5), a cationic dye that binds to polarized membranes was used to report on possible depolarization related to AMP treatment. […] Thus, without wishing to be bound by theory, a more conservative explanation of the results is that the cationic peptides increase membrane permeability to SYTOX and that the like-charge of the AMPs to the reporter of polarization may confound the interpretation of the indirect assay. For example, the AMPs may simply displace the self-quenching DiSC3(5) molecules from the membrane surface without causing depolarization.

TVGGLVKWILKTVKKFA-NH2 [STIP3-29, TVGGLVKWILKTVKKFA-NH2]
treated bacteria killed (panel of 7 MRSA strains; 12.5 μg/mL (2-fold MIC), within the first 4 hours, panel of 7 MRSA strains): ~99% | antibiotic effect (panel of 7 MRSA strains; in words): bactericidal | MIC (S. equorum): 3.13 µg/mL | MIC (μg/ml) (Mycoplasma bovis): > (> indicates no inhibition up to 50 μg/ml) | MIC [1]: 3.13 µg/mL | MIC (S. auricularis): 1.56 µg/mL | MIC (S. epidermidis): 3.13 µg/mL | MIC (Streptococcus canis): 6.25 µg/mL | MIC (μg/ml) [2]: > (> indicates no inhibition up to 50 μg/ml) | MIC (μg/ml) (Klebsiella pneumoniae): > (> indicates no inhibition up to 50 μg/ml) | MIC (μg/ml) (Pasteurella multocida): > (> indicates no inhibition up to 50 μg/ml) | MIC [3]: 3.13 µg/mL | MIC [4]: 6.25 µg/mL | MIC [5]: 12.5 µg/mL | MIC (Streptococcus agalactiae): 3.13 µg/mL | MIC (S. scuri): 3.13 µg/mL | MIC (Streptococcus equi): 3.13 µg/mL | indirect measure of tissue health (alamarBlue) (3D EpiDerm skin tissues): appeared to be unaffected | MIC M. luteus (M. luteus ATCC 4698): 1.56 µg/mL | MIC M. luteus (M. luteus ATCC 4698; molar): 0.85 µM | fold improvement of activity (MIC) (M. luteus ATCC 4698; relative to STIP3-1, M. luteus): 8 fold | SYTOX fluorescence change (MRSA ATCC 33592): rapid and concentration dependent increase in SYTOX fluorescence
